Reference: patent publication US7259293B2, “Expression of eukaryotic peptides in plant plastids” (priority 1998, dated 2007)

Key:
[1] = tested on: homoplasmic tobacco plants of the line 38773-6; assay: Whole plant glyphosate spray tolerance, line 38773-6; assay type: in vivo
Method: Homoplasmic tobacco plants of the line 38773-6 are sprayed with glyphosate using a track sprayer at concentrations corresponding to 0 oz/acre, 16 oz/acre, 32 oz/acre and 64 oz/acre to test for whole plant tolerance. Plant height was measured before and after spraying with glyphosate. The vegetative injury data was collected two weeks after spraying, while the reproductive injury data was collected at plant maturity.
Tolerance is characterized by the continued growth and greening of tissues sprayed with glyphosate. However, as the concentration of glyphosate applied increased, there was a corresponding increase in the level of vegetative injury.

[2] = tested on: Wild type tobacco (nontransformed control plants); assay: Whole plant glyphosate spray tolerance, wild type; assay type: in vivo; conditions: concentrations as low as 16 oz/Acre
[3] = tested on: homoplasmic tobacco line 38773-6; assay: In vitro glyphosate tolerance, shoot regeneration from leaf explants, line 38773-6; assay type: cell-based; conditions: tobacco plants expressing EPSPS in plastids (pMON38773)
Method: A transplastomic tobacco line homoplasmic for the construct pMON38773 was tested in vitro to determine the highest level of glyphosate tolerance. Explant tissue was prepared from leaf pieces of nontransgenic wild type tobacco control, Havanna, plants and the homoplasmic tobacco line 38773-6 and cultured for regeneration of shoots on TSO medium (described above) supplemented with glyphosate levels of 50 μM, 75 μM, 100 μM, 150 μM and 200 μM. The number of explants producing shoots was determined at 3 weeks and 6 weeks after explant preparation and culturing on glyphosate containing medium.

[4] = tested on: Nb2 cell line; assay: Nb2 cell proliferation bioactivity assay; assay type: cell-based, rat; conditions: 48 hrs incubation, MTS absorbance
Method: Bioactivity of the pH adjusted and centrifuged extract was tested using cells from an Nb2 cell line. These cells proliferate in the presence of growth hormone and other […] type compounds. The assay involves putting various concentrations of growth hormone-containing extract into a 96 well plate. Then a constant amount of cells are added to each well. The plate is incubated for 48 hrs and then a reagent called MTS is added. Metabolizing cells take up the MTS and convert it to a blue colored substance. The more cells there are the more blue color in the well. The blue color is measured using a spectrophotometer. The number of cells should be proportional to the concentration of growth hormone in the media. At some high concentration one expects that the cells will become saturated with growth hormone and that the dose response will level off. At very low hGH concentrations essentially no enhanced growth is seen.
To test this hypothesis in vitro, a rat lymphoma cell line, Nb2, that proliferates in the presence of somatotropin (hGH) and other […] type compounds was employed. Proliferation of this cell line is proportional to the amount of somatotropin in the culture medium, until saturation is reached. The ion exchange column eluate from transplastomic Nt-4838 and Nt-38794 plants or identically treated wild-type plants was added to the Nb2 cell culture medium. As control, E. coli produced, refolded hGH was used.

[5] = in vivo; cited from earlier work

Compound: O=C(O)CNCP(=O)(O)O [Glyphosate, N-phosphonomethylglycine]
- glyphosate concentration tolerated, whole plant spray ([1]; homoplasmic tobacco lines, initial results, vegetative tissue injury): 16 oz/acre
- glyphosate level tolerated, whole plant spray ([1]; subsequent experiments with additional transformed lines): 64 oz/Acre
- glyphosate level with a good level of tolerance, whole plant spray ([1]; transplastomic lines): 32 oz/Acre
- susceptibility to glyphosate spray [2]: highly susceptible
- glyphosate level tolerated (shoot regeneration) [3]: at least 200 μM

Compound: alanine-hST: hGH with alanine N-terminus, from Nt4838 extracts, methionine removed by aminopeptidase
- proliferation of the Nb2 cell line (bioactivity) [4]: also bioactive

Compound: chloroplast derived hGH: human growth hormone expressed in tobacco plastids
- proliferation of the Nb2 cell line (bioactivity) [4]: biologically active
- proliferation of the Nb2 cell line (bioactivity) ([4]; listed as hGH expressed from a plant plastid): sigmoidal shape when graphed as absorbance versus hGH concentration

Compound: recombinant somatotropin: recombinant somatotropin produced in E. coli, N-terminal methionine or phenylalanine (Moore et al. 1988)
- pharmacokinetics [5]: equivalent pharmacokinetics
